In ChEMBL document CHEMBL5036327, “Systematic Optimization of Potent and Orally Bioavailable Purine Scaffold as a Dual Inhibitor of Toll-Like Receptors 7 and 9” (J Med Chem, 2021):
Converted amounts (≈) assume the structure as drawn.

Assays:
[1] = target: T1, Toll-like receptor 7 (Homo sapiens, UniProt Q9NYK1); assay: Antagonist activity at human TLR7 expressed in HEK-blue-HTLR7 cells assessed as inhibition of CL264-induced NFkappaB activation measured after overnight incubation by SEAP-based spectrophotometry assay
T1 sequence (Q9NYK1 whole entry): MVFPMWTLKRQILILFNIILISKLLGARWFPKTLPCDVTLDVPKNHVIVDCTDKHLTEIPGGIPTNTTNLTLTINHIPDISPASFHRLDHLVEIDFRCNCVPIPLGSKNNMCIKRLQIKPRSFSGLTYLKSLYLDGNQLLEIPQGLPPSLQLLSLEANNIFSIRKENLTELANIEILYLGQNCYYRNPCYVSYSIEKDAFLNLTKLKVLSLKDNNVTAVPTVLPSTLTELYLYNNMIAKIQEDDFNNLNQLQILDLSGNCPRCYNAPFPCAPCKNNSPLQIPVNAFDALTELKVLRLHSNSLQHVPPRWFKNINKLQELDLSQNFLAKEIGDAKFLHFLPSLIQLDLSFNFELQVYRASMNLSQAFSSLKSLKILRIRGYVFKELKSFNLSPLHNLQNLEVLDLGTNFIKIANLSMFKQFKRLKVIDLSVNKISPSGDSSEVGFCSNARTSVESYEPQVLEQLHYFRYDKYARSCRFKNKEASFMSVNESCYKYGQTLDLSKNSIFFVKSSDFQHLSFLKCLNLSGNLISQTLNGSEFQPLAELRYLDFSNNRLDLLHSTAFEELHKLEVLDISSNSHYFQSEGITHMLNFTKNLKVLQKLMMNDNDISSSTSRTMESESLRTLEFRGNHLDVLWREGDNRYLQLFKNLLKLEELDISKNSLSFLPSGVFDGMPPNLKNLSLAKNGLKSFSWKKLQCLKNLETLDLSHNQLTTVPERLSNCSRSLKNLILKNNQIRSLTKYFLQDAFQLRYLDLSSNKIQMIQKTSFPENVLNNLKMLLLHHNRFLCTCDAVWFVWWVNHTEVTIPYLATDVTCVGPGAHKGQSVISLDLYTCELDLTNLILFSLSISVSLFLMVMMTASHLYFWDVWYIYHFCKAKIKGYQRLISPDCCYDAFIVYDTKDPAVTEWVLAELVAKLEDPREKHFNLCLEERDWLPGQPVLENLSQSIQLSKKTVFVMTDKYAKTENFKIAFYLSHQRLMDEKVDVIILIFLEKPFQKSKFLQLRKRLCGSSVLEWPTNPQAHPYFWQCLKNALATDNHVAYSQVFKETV

[2] = Apparent permeability across apical to basolateral side in human Caco2 cells at 10 uM measured after 10 mins by LC-MS/MS analysis; settings: Caco-2
[3] = Apparent permeability across basolateral to apical side in human Caco2 cells at 10 uM measured after 10 mins by LC-MS/MS analysis; settings: Caco-2
[4] = Efflux ratio of apparent permeability across apical to basolateral over basolateral to apical side in human Caco2 cells measured after 10 mins by LC-MS/MS analysis; settings: Caco-2
[5] = Stability in human plasma measured after 2 hrs by LC-MS/MS analysis
[6] = Stability in mouse plasma measured after 2 hrs by LC-MS/MS analysis
[7] = Metabolic stability in human liver microsomes assessed as half life incubated for 60 mins by LC-MS/MS analysis
[8] = Metabolic stability in human liver microsomes assessed as compound remaining incubated for 60 mins by LC-MS/MS analysis
[9] = Metabolic stability in human liver microsomes assessed as intrinsic clearance incubated for 60 mins by LC-MS/MS analysis
[10] = Metabolic stability in mouse liver microsomes assessed as intrinsic clearance incubated for 60 mins by LC-MS/MS analysis
[11] = metabolic stability in human liver microsomes assessed as hepatic extraction ratio incubated for 60 mins by LC-MS/MS analysis
[12] = Metabolic stability in mouse liver microsomes assessed as hepatic extraction ratio incubated for 60 mins by LC-MS/MS analysis
[13] = target: T2, Toll-like receptor 8 (Homo sapiens, UniProt Q9NR97); assay: Antagonist activity at human TLR8 expressed in […] cells assessed as inhibition of CL075-induced NFkappaB activation measured after overnight incubation by SEAP-based spectrophotometry assay; type: cell-based, HEK293
T2 sequence (Q9NR97 whole entry): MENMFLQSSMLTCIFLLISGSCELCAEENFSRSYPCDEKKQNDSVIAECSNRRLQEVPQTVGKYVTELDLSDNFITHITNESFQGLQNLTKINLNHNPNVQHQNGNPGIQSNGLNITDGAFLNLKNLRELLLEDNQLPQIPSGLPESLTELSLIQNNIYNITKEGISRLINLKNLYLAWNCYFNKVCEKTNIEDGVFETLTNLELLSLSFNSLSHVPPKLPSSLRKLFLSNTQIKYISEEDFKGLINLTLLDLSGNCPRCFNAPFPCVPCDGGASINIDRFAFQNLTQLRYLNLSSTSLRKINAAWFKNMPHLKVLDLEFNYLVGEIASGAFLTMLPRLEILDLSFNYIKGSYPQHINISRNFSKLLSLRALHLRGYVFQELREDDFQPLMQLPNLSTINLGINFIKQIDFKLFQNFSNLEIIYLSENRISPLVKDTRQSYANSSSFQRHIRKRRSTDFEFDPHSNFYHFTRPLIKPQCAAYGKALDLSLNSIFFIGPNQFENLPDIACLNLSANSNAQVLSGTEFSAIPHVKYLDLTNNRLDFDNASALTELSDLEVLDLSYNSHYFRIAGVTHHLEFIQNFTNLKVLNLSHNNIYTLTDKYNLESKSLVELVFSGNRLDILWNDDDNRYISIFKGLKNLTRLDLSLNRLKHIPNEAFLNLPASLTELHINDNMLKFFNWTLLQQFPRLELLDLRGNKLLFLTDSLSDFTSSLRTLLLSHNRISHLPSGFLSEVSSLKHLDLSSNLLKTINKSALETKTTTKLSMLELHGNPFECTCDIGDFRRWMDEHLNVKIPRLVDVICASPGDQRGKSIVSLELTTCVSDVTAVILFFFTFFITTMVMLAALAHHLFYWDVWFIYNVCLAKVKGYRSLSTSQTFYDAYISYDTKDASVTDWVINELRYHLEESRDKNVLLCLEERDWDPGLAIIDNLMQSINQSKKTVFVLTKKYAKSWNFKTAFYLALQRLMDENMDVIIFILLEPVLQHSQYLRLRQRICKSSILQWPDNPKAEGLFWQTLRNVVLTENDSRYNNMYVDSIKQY

[14] = physchem; settings: buffer, pH 7.4
Description: Aqueous solubility of compound at pH 7.4 measured after 18 hrs by UV-spectrometry

Question: Which IC50 [1] does the source give for `Fc1ccc(CNc2nc(N3CCN(C4CCCC4)CC3)c3ncn(CCCN4CCCC4)c3n2)cc1` here?
Answer: Its IC50 is 13.6 µM.

Question: What about the Papp A→B at 10 min, 10 µM [2] of the same compound?
Answer: The Papp A→B at 10 min, 10 µM was 32.7 ×10⁻⁶ cm/s.

Question: What about the Papp B→A at 10 min, 10 µM [3] of the same compound?
Answer: Its Papp B→A at 10 min, 10 µM is 62 ×10⁻⁶ cm/s.

Question: And the efflux ratio at 10 min [4]?
Answer: Its efflux ratio at 10 min is 1.9.

Question: And the remaining at 2 h [5]?
Answer: The remaining at 2 h was 75%.

Question: What about the remaining at 2 h [6] of the same compound?
Answer: The remaining at 2 h was 20%.

Question: And the half-life at 1 h [7]?
Answer: Its half-life at 1 h is 17.9 min.

Question: What about the remaining at 1 h [8] of the same compound?
Answer: Its remaining at 1 h is 2.9%.

Question: And the microsomal CLint at 1 h [9]?
Answer: Its microsomal CLint at 1 h is 38.8 µL/min/mg.

Question: What about the microsomal CLint at 1 h [10] of the same compound?
Answer: The microsomal CLint at 1 h was 23.1 µL/min/mg.

Question: What about the hepatic extraction ratio at 1 h [11] of the same compound?
Answer: Its hepatic extraction ratio at 1 h is 0.642.

Question: What about the hepatic extraction ratio at 1 h [12] of the same compound?
Answer: Its hepatic extraction ratio at 1 h is 0.385.

Question: What about the IC50 [13] of the same compound?
Answer: The IC50 was over 30 µM.

Question: And the solubility at 18 h [14]?
Answer: Its solubility at 18 h is 28 µg/mL (≈ 55.3 µM).
